For 47 molecules, melting point and IC50 results are on record in US6362188B1, “Farnesyl protein transferase inhibitors” (Schering Corporation, priority 1998, dated 2002).

As a reminder, the melting point is the temperature, or range, at which the solid turns liquid. Broadly, the IC50 is the concentration that inhibits the measured activity by half. Read a high IC50 as weaker potency.

The structures appear in SMILES notation.

One data set concerns Human tumor cells. Nature of the data set: Soft Agar Assay (anchorage-independent growth). The format is cell-based. The note with it: colony outgrowth in soft agar, stated as a range for the group. The protocol:
Anchorage-independent growth is a characteristic of tumorigenic cell lines. Human tumor cells can be suspended in growth medium containing 0.3% agarose and an indicated concentration of a farnesyl transferase inhibitor. The solution can be overlayed onto growth medium solidified with 0.6% agarose containing the same concentration of farnesyl transferase inhibitor as the top layer. After the top layer is solidified, plates can be incubated for 10-16 days at 37° C. under 5% CO2 to allow colony outgrowth. After incubation, the colonies can be stained by overlaying the agar with a solution of MTT (3-[4,5-dimethyl-thiazol-2-yl]-2,5-diphenyltetrazolium bromide, Thiazolyl blue) (1 mg/mL in PBS). Colonies can be counted and the IC50's can be determined.

Take `Cc1cn(CC2CCCN(C(=O)C3CN(C4c5ccc(Cl)cc5CCc5cc(F)cnc54)CCN3C(=O)OC3CCCCC3)C2)cn1` (stereo not drawn) [Example 287]: the melting point lay within 116 to 123 °C. Further, the 50% inhibitory concentration (IC50) in the data set on Human tumor cells was 0.05 to 30 nM. On to `Cc1cn(C[C@@H]2CCCN(C(=O)[C@H]3CN(C4c5ccccc5CCc5ccccc54)CCN3C(=O)OC3CCCCC3)C2)cn1` [Example 414], for which the melting point fell in the range of 98 to 112 °C. In turn, `Cc1cn(C[C@@H]2CCCN(C(=O)[C@H]3CN([C@@H]4c5ccccc5CCc5cc(F)cnc54)CCN3C(=O)OC3CCCCC3)C2)cn1` [Example 384] registered a melting point of 104 to 111 °C. The molecule also registered an IC50 with Human tumor cells of 0.05 to 30 nM. Consider `Cc1cn(C[C@@H]2CCCN(C(=O)[C@H]3CN([C@H]4c5ccc(Cl)cc5CCc5ccc[n+]([O-])c54)CCN3C(=O)OC3CCCCC3)C2)cn1` [Example 387], for which the melting point fell in the range of 85 to 90 °C. Moreover, the IC50 in the data set on Human tumor cells was 0.05 to 30 nM.

Take `Cc1nccn1CC1CCCN(C(=O)C2CN(C3c4ccc(Cl)cc4CCc4cccnc43)CCN2C(=O)OC(C)(C)C)C1` (single isomer, unassigned) [Example 27]: the melting point was 110 to 119 °C. In the data set with Human tumor cells, the IC50 was in the range of 0.5 to 30 nM.

Take `Cc1cn(C[C@@H]2CCCN(C(=O)[C@H]3CN([C@H]4c5ccc(Cl)cc5CCc5cc(Cl)cnc54)CCN3C(=O)OC3CCCCC3)C2)cn1` [Example 255]: the melting point fell in the range of 116 to 126 °C. For the same molecule, in the data set with Human tumor cells, the IC50 was in the range of 0.05 to 30 nM. For `Cc1cn(C[C@@H]2CCCN(C(=O)[C@H]3CN([C@@H]4c5ccc(Cl)cc5CCc5cc(Cl)cnc54)CCN3C(=O)OC(C)(C)C)C2)cn1` [Example 228] the same measures were 115 to 128 °C and 0.05 to 30 nM. For `O=C([C@H]1CN(C2c3ccc(Cl)cc3CCc3cc(Cl)cnc32)CCN1C(=O)OC1CCCCC1)N1CCCC(Oc2cccnc2)C1` (stereo partly drawn) [Example 254A], the melting point was in the range of 105 to 113 °C. `CN1CCN(C(=O)C2CN(C3c4ccc(Cl)cc4CCc4cc(Br)cnc43)CCN2C(=O)OC(C)(C)C)CC1Cn1ccnc1` (stereo not drawn) [Example 5] showed a melting point of 123 to 134 °C. This molecule had an IC50 with Human tumor cells of 0.5 to 30 nM. Regarding `Cc1cn(CC2CCCN(C(=O)C3CN(C4c5ccc(Cl)cc5CCc5cccnc54)CCN3C(=O)OC(C)C)C2)cn1` (stereo not drawn) [41(A)], the melting point was in the range of 117 to 120 °C.

Molecule `Cc1cn(C[C@@H]2CCCN(C(=O)[C@H]3CN([C@@H]4c5ccc(Cl)cc5CCc5cc(F)cnc54)CCN3C(=O)OC(C)(C)C)C2)cn1` [Example 260] registered a melting point of 110 to 116 °C. This molecule also gave an IC50 in the data set with Human tumor cells of 0.05 to 30 nM. The molecule `Cc1cn(CC2CCCN(C(=O)C3CN(C4c5ccccc5CCc5cc(Cl)cnc54)CCN3C(=O)OC(C)(C)C)C2)cn1` (single isomer, unassigned) [Example 293] returned a melting point of 110 to 123 °C. On to `Cc1nccn1CC1CCCN(C(=O)C2CN(C3c4ccc(Cl)cc4CCc4cccnc43)CCN2C(=O)OC(C)C)C1` (single isomer, unassigned) [Example 39], for which the melting point fell in the range of 111 to 125 °C. As for `Cc1cn(C[C@@H]2CCCN(C(=O)[C@H]3CN([C@H]4c5ccc(Cl)cc5CCc5cc(Cl)cnc54)CCN3C(=O)OC(C)(C)C)C2)cn1` [Example 227], the melting point was 100 to 116 °C. Further, the IC50 in the data set on Human tumor cells was in the range of 0.05 to 30 nM. In turn, `Cc1cn(C[C@H]2CCCN(C(=O)[C@H]3CN([C@H]4c5ccccc5CCc5cc(Br)cnc54)CCN3C(=O)OC3CCCCC3)C2)cn1` [Example 353] displayed a melting point of 121 to 127 °C. The same molecule showed an IC50 in the data set on Human tumor cells of 0.05 to 30 nM. In turn, `CC(C)(C)NC(=O)N1CCN(C2c3ccc(Cl)cc3CCc3cc(Br)cnc32)C[C@@H]1C(=O)N1CCC[C@@H]1Cn1ccnc1` (stereo partly drawn) [Example 21] came in with a melting point of 137 to 139 °C.

In turn, `Cc1nccn1CC1CCCN(C(=O)C2CN(C3c4ccc(Cl)cc4CCc4cccnc43)CCN2C(=O)OC2CCCCC2)C1` (single isomer, unassigned) [Example 45] registered a melting point of 108 to 123 °C. In turn, `Cc1cn(CC2CCCN(C(=O)C3CN(C4c5ccc(Cl)cc5CCc5cccnc54)CCN3C(=O)OC(C)C)C2)cn1` (stereo not drawn) [Example 37] yielded a melting point of 95 to 111 °C. On the same count and under the same terms, the figure for `CC(C)OC(=O)N1CCN([C@@H]2c3ccc(Cl)cc3CCc3cc(Br)cnc32)C[C@@H]1C(=O)N1CCC[C@H](Cn2ccnc2)C1` [Example 19] is 123 to 132 °C; for `Cc1nccn1CC1CCCN(C(=O)C2CN(C3c4ccc(Cl)cc4CCc4cccnc43)CCN2C(=O)OC2CCCCC2)C1` (single isomer, unassigned) [Example 47] it is 100 to 106 °C. Same read-out and setting: to `CS(=O)(=O)N1CCN(C2c3ccc(Cl)cc3CCc3cc(Br)cnc32)C[C@@H]1C(=O)N1CCC[C@@H]1Cn1ccnc1` (stereo partly drawn) [Example 22] belongs 135 to 141 °C; to `Cc1cn(CC2CCCN(C(=O)C3CN(C4c5ccc(Cl)cc5CCc5cccnc54)CCN3C(=O)OC3CCCCC3)C2)cn1` (stereo not drawn) [Example 43], 108 to 118 °C. The same measure, in the same setting: to `Cc1cn(CC2CCCN(C(=O)C3CN(C4c5ccc(Cl)cc5CCc5cccnc54)CCN3C(=O)OC3CCCCC3)C2)cn1` (stereo not drawn) [Example 42] belongs 99 to 113 °C. Consider `CC(C)NC(=O)N1CCN([C@@H]2c3ccc(Cl)cc3CCc3cc(Br)cnc32)C[C@@H]1C(=O)N1CCC[C@@H](Cn2ccnc2)C1` [Example 17], for which the melting point was 132 to 136 °C. As for `CCc1cn(CC2CCCN(C(=O)C3CN(C4c5ccc(Cl)cc5CCc5cccnc54)CCN3C(=O)OC(C)(C)C)C2)cn1` (stereo not drawn) [35(D)], the melting point lay within 79 to 81 °C. Take `Cc1nccn1CC1CCCN(C(=O)C2CN(C3c4ccc(Cl)cc4CCc4cc(Br)cnc43)CCN2C(=O)OC(C)(C)C)C1` (stereo not drawn) [Example 4]: the melting point is 128 to 133 °C. Same read-out and setting: the figure for `CC(C)(C)OC(=O)N1CCN(C2c3ccc(Cl)cc3CCc3cccnc32)CC1C(=O)N1CCCC(Cn2ccnc2)C1` (stereo not drawn) [Example 25] is 124 to 143 °C; for `CC(C)(C)OC(=O)N1CCN(C2c3ccc(Cl)cc3CCc3cc(Br)cnc32)CC1C(=O)N1CCS(=O)(=O)C(Cn2ccnc2)C1` (stereo not drawn) [Example 8] it is 179 to 182 °C. The same measure, in the same setting: to `CCc1cn(CC2CCCN(C(=O)C3CN(C4c5ccc(Cl)cc5CCc5cccnc54)CCN3C(=O)OC(C)(C)C)C2)cn1` (stereo not drawn) [35(C)] belongs 104 to 106 °C; to `Cc1nccn1CC1CCCN(C(=O)C2CN(C3c4ccc(Cl)cc4CCc4cccnc43)CCN2C(=O)OC(C)C)C1` (single isomer, unassigned) [Example 41], 95 to 100 °C. The same measure, in the same setting: the figure for `Cc1nccn1CC1CCCN(C(=O)C2CN(C3c4ccc(Cl)cc4CCc4cccnc43)CCN2C(=O)OC2CCCCC2)C1` (single isomer, unassigned) [Example 46] is 91 to 94 °C; for `Cc1cn(CC2CCCN(C(=O)C3CN(C4c5ccc(Cl)cc5CCc5cccnc54)CCN3C(=O)OC3CCCCC3)C2)cn1` (stereo not drawn) [47(B)] it is 133 to 139 °C. Consider `Cc1ncn(CC2CCCN(C(=O)C3CN(C4c5ccc(Cl)cc5CCc5cccnc54)CCN3C(=O)OC3CCCCC3)C2)c1C` (single isomer, unassigned) [47(H)], for which the melting point was in the range of 106 to 125 °C.

As for `Cc1cn(CC2CCCN(C(=O)C3CN(C4c5ccc(Cl)cc5CCc5cccnc54)CCN3C(=O)OC(C)C)C2)cn1` (stereo not drawn) [Example 36], the melting point fell in the range of 123 to 132 °C. In turn, `Cc1nccn1CC1CCCN(C(=O)C2CN(C3c4ccc(Cl)cc4CCc4cccnc43)CCN2C(=O)OC(C)C)C1` (single isomer, unassigned) [Example 40] registered a melting point of 107 to 112 °C. On to `Cc1cn(CC2CCCN(C(=O)C3CN(C4c5ccc(Cl)cc5CCc5cccnc54)CCN3C(=O)OC(C)C)C2)cn1` (stereo not drawn) [41(B)], for which the melting point is 101 to 120 °C. For `Cc1cn(CC2CCCN(C(=O)C3CN(C4c5ccccc5CCc5cc(Cl)cnc54)CCN3C(=O)OCC(C)(C)C)C2)cn1` (stereo not drawn) [Example 298], the concentration for half-maximal inhibition (IC50) in the data set with Human tumor cells was in the range of 0.05 to 30 nM. The molecule `Cc1cn(CC2CCCN(C(=O)C3CN(C4c5ccc(Cl)cc5CCc5cccnc54)CCN3C(=O)OC3CCCCC3)C2)cn1` (stereo not drawn) [47(A)] had a melting point of 122 to 127 °C.

`Cc1cn(C[C@@H]2CCCN(C(=O)[C@H]3CN([C@H]4c5ccc(Cl)cc5CCc5cc(Cl)cnc54)CCN3C(=O)C(C)(C)C)C2)cn1` [Example 240] yielded an IC50 with Human tumor cells of 0.05 to 30 nM. Consider `CCc1nccn1CC1CCCN(C(=O)C2CN(C3c4ccc(Cl)cc4CCc4cccnc43)CCN2C(=O)OC(C)(C)C)C1` (stereo not drawn) [Example 34], for which, in the data set on Human tumor cells, the IC50 was 0.5 to 30 nM. Turning to `Cc1cn(C[C@H]2CCCN(C(=O)[C@H]3CN([C@@H]4c5ccc(Cl)cc5CCc5cc(Br)cnc54)CCN3C(=O)NC(C)(C)C)C2)cn1` [Example 191], in the data set with Human tumor cells, the IC50 lay within 0.05 to 30 nM. The molecule `Cc1cn(CC2CCCN(C(=O)C3CN(C4c5ncccc5CCc5cccc(Cl)c54)CCN3C(=O)OC3CCCCC3)C2)cn1` (single isomer, unassigned) [Example 391] returned an IC50 with Human tumor cells of 0.05 to 30 nM.

`Cc1cn(CC2CCCN(C(=O)C3CN(C4c5ccc(Cl)cc5CCc5cc(Br)cnc54)CCN3C(=O)OC(C)(C)C)C2)cn1` (stereo not drawn) [Example 4.2] registered a melting point of 131 to 135 °C.

Molecule `Cc1cn(CC2CN(C(=O)C3CN(C4c5ccc(Cl)cc5CCc5cc(Br)cnc54)CCN3C(=O)OC(C)(C)C)CCS2(=O)=O)cn1` (stereo not drawn) [Example 150] yielded an IC50 with Human tumor cells of 0.05 to 30 nM. `CC(C)(C)NC(=O)N1CCN([C@@H]2c3ccc(Cl)cc3CCc3cc(Br)cnc32)C[C@@H]1C(=O)N1CCC[C@H](Cn2ccnc2)C1` [Example 18] yielded a melting point of 112 to 120 °C. Consider `Cc1cn(C[C@@H]2CN(C(=O)[C@H]3CN([C@@H]4c5ccc(Cl)cc5CCc5cc(Br)cnc54)CCN3C(=O)OC3CCCCC3)CCS2(=O)=O)cn1` [Example 209], for which, in the data set with Human tumor cells, the IC50 lay in the range of 0.05 to 30 nM. Same read-out and setting: to `Cc1cn(CC2CCCN(C(=O)C3CN(C4c5ccc(Cl)cc5CCc5cc(Br)cnc54)CCN3C(=O)NC(C)(C)C)C2)cn1` (stereo not drawn) [Example 177] belongs 0.05 to 30 nM.
